Structures are written as SMILES. Marks after values point to notes of the source that are not given here.

Usually microsomal CLint stands for the rate of metabolic loss divided by the concentration. High values mean rapid turnover, low ones slow turnover.

A short description of data set [1]: Fraction of drug unbound in human liver microsomes (fumic). It is filed as in vitro ADME. The text has this:
fumic is the fraction of drug unbound in human liver microsomes

The nature of data set [2]: In vivo tolerability in normal rats. As to conditions: broad dose range.
A short description of data set [3]: Fraction escaping first-pass gut metabolism (FG). On the set-up: species or system human. As to conditions: calculated. An excerpt:
The estimation of fraction metabolized in the gut may be determined using the following equation found in Yang J, et al. (2007) Prediction of intestinal first-pass drug metabolism. Curr Drug Metab 8:676-684:
FG=Qgut/(Qgut+fugut×Clint CYP3A,gut)
Qgut=Qvilli×Clperm/(Qvilli+Clperm)
Clperm═Papp×Intestinal surface area
Clint,CYP3A,gut=CLint,CYP3A,liver/fumic×microsomal protein in gut (mg)×0.4 (in house calculation) Where Qgut is a hybrid flow term dependent upon the villous blood flow and permeability of the compound fugut is the fraction of drug unbound in the enterocyte
Qvilli is villous blood flow
Clperm is the clearance term defining permeability through the enterocyte
Papp is the passive permeability measured in MDCKII cell line in house fumic is the fraction of drug unbound in human liver microsomes
Human intestine parameters are from Yang et al., 2007, and Gertz M, et al. (2010) Prediction of human intestinal first-pass metabolism of 25 CYP3A substrates from in vitro clearance and permeability data. Drug Metab Dispos 38:1147-1158.

A short description of data set [4]: Renal and biliary excretion in bile-duct cannulated dogs. It is filed as in vivo, dog. The protocol:
The renal and biliary excretion of test compounds is tested in bile-duct cannulated dogs essentially according to Burkey J L, et al. (2002) Disposition of LY333531, a selective protein kinase C beta inhibitor, in the Fischer 344 rat and beagle dog. Xenobiotica 32:1045-1052. The compound of Example 7 is tested essentially as described and its renal and biliary excretion is found to be negligible. The fraction of compound cleared through CYP3A4 metabolism is calculated using the equation below: […]

The next data set relates to CYP3A. Description: Intrinsic clearance CLint,CYP3A,liver. As to conditions: human. It is filed as in vitro ADME.
In data set [5] the test system is human D1 receptor knock-in mice. Description: Basal (Habituated) Locomotor Activity. It is filed as in vivo, mouse. To be noted: for Basal Locomotor Activity (Total Ambulations for 60 min) Means: N = 8/group. The protocol:
Locomotor activity is measured using an automated system to track movement in mice. Monitoring of mouse locomotor activity behaviors take place in transparent plastic shoebox cages having dimensions of 45×25×20 cm, with a 1 cm depth of wood chips for absorbent bedding, and covered with a ventilated filtered plastic cage top. Cages were placed in a rectangular frame containing a grid of 12 photocell beams in an 8×4 configuration (Kinder Scientific, Poway, CA) that is positioned 2.5 centimeters from the floor of the cage for the detection of body movements (ambulations) and recorded by computer.
Male human D1 receptor knock-in mice are placed in chambers and allowed to habituate to the chambers for 60 min. During the habituation period, the mice show decreasing locomotion over time, as expected. Following administration of a compound of the invention, animal movement is found to increase in a dose-dependent fashion.
The mice are randomly assigned to treatment groups. In the dose response study, each mouse is placed individually into one of the locomotor activity boxes for a 60 min. habituation period. The mice are then dosed orally using test compound in a 20% hydroxypropyl-betacyclodextrin vehicle and using a 10 mL/kg dose volume. After dosing, the mice are placed back into the LMA boxes and the total number of ambulations is recorded per 10 min interval for each mouse over a 60 min measurement period. Statistical analysis is carried out using one-way ANOVA followed by post-hoc analysis using Dunnett's Comparison test.

The target of another data set is CYP3A4 (Homo sapiens (Human), UniProt P08684). Description: Recombinant CYP phenotyping assay (fmCYP3A4_RCP). It is filed as in vitro ADME. As to conditions: not examined in RCP assay; worst case of 100% metabolized by CYP3A4 assumed. The protocol: The relative fraction of a compound's metabolism contributed by a given CYP, as for example CYP3A4, of the total P450 metabolism of the compound may be determined as follows:
A panel of 9 human recombinant CYPs (rCYPs) provided as Supersomes (BD Gentest, Woburn, MA), including rCYPs 1A2, 2B6, 2C8, 2C9, 2C19, 2D6, 2J2, 3A4, and 3A5, are evaluated for compound metabolism (see generally Cannady E A, et al. (2015) Evacetrapib: in vitro and clinical disposition, metabolism, excretion, and assessment of drug interaction potential with strong CYP3A and CYP2C8 inhibitors. Pharmacol Res Perspect 3:e00179). […]
in which kdep is the substrate depletion rate constant (min^−1), pmol rCYP is the lot-specific amount of rCYP in the incubation, and relative activity factor (RAF) is a relative activity factor (pmol/mg) appropriate for the rCYPs/HLMs pair. The rate constant is determined in-house by experiment, the slope determined using linear regression from the log transformed % remaining on the y-axis vs time on the x-axis (min^−1). pmol rCYP and RAF are vender supplied constenats for the supersome.
The fraction of CYP3A4-mediated metabolism (fmCYP3A4_RCP) is determined by dividing the HLM-scaled CLint of CYP3A4 by the sum of the HLM-scaled CL1nt for each P450 subtype assayed (Cannady et al., 2015).

The compound `C[C@H]1c2ccc(F)c(CCC(C)(C)O)c2C[C@H](CO)N1C(=O)Cc1c(F)cccc1Cl` [Example 7, 2-(2-chloro-6-fluoro-phenyl)-1-[(1S,3R)-6-fluoro-3-(hydroxymethyl)-5-(3-hydroxy-3-methyl-butyl)-1-methyl-3,4-dihydro-1H-isoquinolin-2-yl]ethanone] gave a fumic in data set [1] of 0.392. For the same compound, the “tolerability / toxicity in vivo” value in data set [2] is “generally well tolerated”. Further, the FG in data set [3] was 0.78. The “renal and biliary excretion” value in data set [4] is reported as “negligible”. Also, in the data set on CYP3A, the microsomal CLint was determined as 25.5 µL/min/mg. Besides, the “Basal Locomotor Activity (Total Ambulations for 60 min) Means” value in data set [5] (3.0 mg/kg PO) is reported as 538; in data set [5] (6.0 mg/kg PO), 1111; in data set [5] (10 mg/kg PO), 1471***; in data set [5] (30 mg/kg PO), 3937****; in data set [5] (60 mg/kg PO), 4613****. The “in vivo efficacy in locomotor activation” value in data set [5] (10, 30, and 60 mg/kg PO, habituated mice) is “significant in vivo efficacy”. In data set [5] (oral dose response, 3-60 mg/kg), the basal movement entry was “increase basal movement in a dose dependent manner”. Moreover, the fm3A4_RCP at CYP3A4 is on record as 1.

(Values after patent publication US20230382869A1, “Phenyl-3,4-dihydroisoquinolin-2(1h)-yl-ethan-1-one derivatives as dopamine d1receptor positive allosteric modulators” (Eli Lilly and Company, priority 2020, published 2023).)
